Consider seven compounds from EP2812315B1, “PYRROLIC DERIVATIVES, PROCESSES FOR PREPARING THE SAME AND THEIR USES AS A DRUG” (Universite Joseph Fourier, priority 2012, dated 2013).

What all share (type): cell-based
The test system of test [1] is Staphylococcus epidermidis CIP 103627. The test can be described thus: MIC determination, microdilution method (CLSI M07-A8). The following applies: CIP103627, 5 x 10^5 CFU/mL, 18 hours incubation. The procedure: (§1) The microdilution method recommended by the Clinical and Laboratory Standard Institute [M07-A8, Vol.29, N°2] was used. The activity of pyrrolic compounds was tested against 29 bacterial strains belonging to 17 different species and 12 different genera (Staphylococcus, Streptococcus, Enterococcus, […], Bacillus, Haetttophilus, Escherichia, Klebsiella, Enterobacter, Serratia, Pseudomonas, and Acinetobacter). Bacterial inocula were prepared in Mueller Hinton broth (MH2, bioMérieux, Marcy L'Etoile, France), supplemented with 10% sheep blood for fastidious species (i.e., Streptococcus pneumoniae and Haemophilus influenzae). They were dispensed in 96 well microtiter plates (5 x 10^5 CFU/mL of final inoculum). Pyrrolic compounds were added to the wells as to obtain two-fold serial concentrations (0.25-64 mg/L). Plates were incubated at 37°C, in 5% CO2 enriched atmosphere for fastidious species only. MICs were read after 18 hours incubation of cultures, and corresponded to the minimum pyrrolic compound concentration that allowed complete visual growth inhibition of bacteria. Drug-free cultures served as growth controls. Cultures receiving gentamicine, ciprofloxacine or cefotaxime served as positive controls.
(Broth dilution looks for growth in wells or tubes with falling amounts of substance.)

Test [2] concerns Staphylococcus aureus ATCC 33592 (MRSA). Described as above. The following applies: 5 x 10^5 CFU/mL, 18 hours incubation. Here is the method: as §1
For test [3], the system named is Staphylococcus aureus ATCC 9144. The description is as above. The following applies: ATCC9144, 5 x 10^5 CFU/mL, 18 hours incubation. The procedure:
as §1

In test [4] the test system is Staphylococcus aureus ATCC 106414 (VISA). The description is as above. The following applies: 5 x 10^5 CFU/mL, 18 hours incubation. The procedure: as §1
For test [5], the system named is Staphylococcus aureus CIP 103428. The description is as above. As to conditions: CIP103428, 5 x 10^5 CFU/mL, 18 hours incubation. The procedure: as §1
In test [6] the test system is Staphylococcus aureus CIP 65.6. Described as above. The following applies: CIP65, 5 x 10^5 CFU/mL, 18 hours incubation. Here is the method: as §1
Test [7] concerns Staphylococcus aureus ATCC 6538. The test is described as above. As to conditions: ATCC6538, 5 x 10^5 CFU/mL, 18 hours incubation. Here is the method:
as §1

Test [8] has as its system Staphylococcus epidermidis CIP 81.55. The description is as above. The following applies: CIP81, 5 x 10^5 CFU/mL, 18 hours incubation. The procedure: as §1
For test [9], the system named is Staphylococcus aureus CIP 65.25 (MRSA). The description is as above. The following applies: 5 x 10^5 CFU/mL, 18 hours incubation. The procedure:
as §1

In test [10] the test system is Staphylococcus hominis (CHUG-Shom7). The test is described as follows: Other MIC determination, microdilution method (CLSI M07-A9) with modifications. The following applies: clinical strain. Here is the method: (§2) The microdilution method recommended by the Clinical and Laboratory Standard Institute [M07-A9, Vol.32, N°2] was used with the following modifications.
(§3) Bacterial inocula were prepared in Mueller Hinton broth (MH2, BioMérieux, Marcy L'Etoile, France). They were dispensed in 96 well microtiter plates (10^6 CFU/ml of final inoculum, 192 µL per well).
(§4) To avoid cross-contaminations in microtiter plates, one row was left blank between each strain tested. Microplates were incubated for 18h at 37 °C in ambient air. Then MICs were read visually and, in case of visual reading difficulties, confirmed using a spectrophotometer at a wavelength of 630 nm (BioTek® EL808 Absorbance Microplate Reader). MICs corresponded to the minimum pyrrolic compound concentrations that allowed complete visual growth inhibition of bacteria. Drug-free cultures served as growth controls.
(§5) We used four Staphylococcus aureus strains. Two reference strains were provided by the French reference center for Staphylococcus spp. (Lyon, France), including one methicillin-susceptible (MSSA 476) and one methicillin-resistant (MRSA 252) S. aureus strains. The two remaining S. aureus strains were purchased from the CRBIP (Centre de Ressources Biologiques de l'Institut Pasteur): a vancomycin-intermediate strain (ATCC 106414) and a S. aureus strain (SA-1199B) resistant to fluoroquinolones due to overexpression of the NorA multidrug efflux pump. Coagulase-negative Staphylococcus strains included three reference strains purchased from CRBIP: a methicillin-susceptible S. epidermidis strain (ATCC 12228), a methicillin-resistant S. epidermidis strain (ATCC 49461), and a methicillin-susceptible S. sciuri strain (ATCC 29061). We also used 37 clinical strains belonging to the following coagulase-negative Staphylococcus species: S. arlettae (two strains), S. capitis (nine strains), S. epidermidis (one strain), S. haemolyticus (six strains), S. hominis (eight strains), S. lugdunensis (one strain), S. massiliensis (one strain), S. pettenkoferi (two strains), S. saprophyticus (two strains), S. simulans (one strain), and S. warneri (four strains) . Identification of the clinical strains was first obtained using VITEK® 2 System (Biomérieux) and confirmed by amplification and sequencing of the tuf gene (Reference: Bergeron, M., O. Dauwalder, M. Gouy, A.-M. Freydiere, M. Bes, H. Meugnier, Y. Benito, J. Etienne, G. Lina, F. Vandenesch, and S. Boisset. Species identification of staphylococci by amplification and sequencing of the tuf gene compared to the gap gene and by matrix-assisted laser desorption ionization time-of-flight mass spectrometry, Eur. J. Clin. Microbial. Infect. Dis. 2011, 30, 343-354).
(§6) The activity of the pyrrolic compounds 3c and 3i was further tested against 32 clinical strains belonging to 11 coagulase-negative Staphylococcus species.

Test [11] relates to Staphylococcus haemolyticus (CHUG-Shae7). Described as above. Here is the method: as §2, §3, §4, §5, §6
The test system of test [12] is Staphylococcus capitis (CHUG-Scapi7). The test is described as above. The following applies: clinical strain. The procedure: as §2, §3, §4, §5, §6
For test [13], the system named is Staphylococcus lugdunensis (CHUG-Slug1). Described as above. As to conditions: clinical strain. Here is the method: as §2, §3, §4, §5, §6
Test [14] has as its system Staphylococcus capitis (CHUG-Scapi5). Described as above. The following applies: clinical strain. The procedure: as §2, §3, §4, §5, §6
For test [15], the system named is Staphylococcus capitis (CHUG-Scapi4). Described as above. As to conditions: clinical strain. The procedure: as §2, §3, §4, §5, §6
Test [16] concerns Staphylococcus hominis (CHUG-Shom8). The test is described as above. As to conditions: clinical strain. Here is the method: as §2, §3, §4, §5, §6
Test [17] has as its system Staphylococcus hominis (CHUG-Shom5). The description is as above. The following applies: clinical strain. The procedure: as §2, §3, §4, §5, §6
In test [18] the test system is Staphylococcus haemolyticus (CHUG-Shae3). The test is described as above. Here is the method: as §2, §3, §4, §5, §6
Test [19] deals with Staphylococcus aureus (SA-1199B, NorA). Described as above. As to conditions: 18 h. The gist of the method: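 Broth microdilution per CLSI M07-A9 with modifications, in Mueller Hinton broth at 10^6 CFU/ml final inoculum. Plates were incubated 18h at 37 °C in ambient air. MIC was the lowest compound concentration giving complete visual growth inhibition, confirmed at 630 nm when unclear.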

One may read the MIC as the least concentration at which growth counts as inhibited. Higher therefore signals weaker potency.

In brackets after ≈: the same amount, converted by molar mass. A value given as a limit tells only on which side of the number the result lay.

With `CC(=O)c1c(C)[nH]c(C(c2ccc(Cl)cc2)c2[nH]c(C)c(C(C)=O)c2C)c1C` [3c], the minimum inhibitory concentration (MIC) is more than 128 µg/mL in test [1]; 4 µg/mL (≈ 10.1 µM) in test [2]; 4 µg/mL (≈ 10.1 µM) in [3]; 2 µg/mL (≈ 5.04 µM) in test [4]; 8 µg/mL (≈ 20.2 µM) in test [5]; 4 µg/mL (≈ 10.1 µM) in test [6]. For the same compound, the MIC is 2 µg/mL (≈ 5.04 µM) in test [7]; more than 128 µg/mL in test [8]; 2 µg/mL (≈ 5.04 µM) in test [9]; more than 32 µg/mL in test [10]; 16 µg/mL (≈ 40.3 µM) in test [11]; 8 µg/mL (≈ 20.2 µM) in [12]. In addition, the minimal inhibitory concentration (MIC) in test [13] was more than 32 µg/mL; in test [14], 8 µg/mL (≈ 20.2 µM); in test [15] it was 4 µg/mL (≈ 10.1 µM); in test [16], more than 32 µg/mL; in test [17] it was 8 µg/mL (≈ 20.2 µM); in test [18], 16 µg/mL (≈ 40.3 µM).
As to `CC(=O)c1c(C)[nH]c(C(c2cc3ccccc3o2)c2[nH]c(C)c(C(C)=O)c2C)c1C` [3e], the minimal inhibitory concentration (MIC) was more than 128 µg/mL in [1]; 4 µg/mL (≈ 9.94 µM) in test [2]; 4 µg/mL (≈ 9.94 µM) in test [3]; 4 µg/mL (≈ 9.94 µM) in test [4]; 4 µg/mL (≈ 9.94 µM) in [5]; 4 µg/mL (≈ 9.94 µM) in [6]. In addition, the figures for the minimum inhibitory concentration (MIC) in test [7], in test [8] and in [9] were 4 µg/mL (≈ 9.94 µM), more than 128 µg/mL and 2 µg/mL (≈ 4.97 µM), respectively.
On to `CC(=O)c1c(C)[nH]c(C(c2cc3ccccc3s2)c2[nH]c(C)c(C(C)=O)c2C)c1C` [3f], for which the minimum inhibitory concentration (MIC) in [1] was more than 128 µg/mL; in [2], 8 µg/mL (≈ 19.1 µM); in [3], 2 µg/mL (≈ 4.78 µM); in [4] it was 2 µg/mL (≈ 4.78 µM); in [5], 2 µg/mL (≈ 4.78 µM); in [6] it was 2 µg/mL (≈ 4.78 µM). The minimal inhibitory concentration (MIC) is 2 µg/mL (≈ 4.78 µM) in [7], more than 128 µg/mL in test [8], 2 µg/mL (≈ 4.78 µM) in test [9] and 2 µg/mL (≈ 4.78 µM) in test [19].
`CC(=O)c1c(C)[nH]c(C(c2ccc(F)cc2)c2[nH]c(C)c(C(C)=O)c2C)c1C` [3g] returned a minimal inhibitory concentration (MIC) in test [19] of 8 µg/mL (≈ 21 µM).
As to `CC(=O)c1c(C)[nH]c(C(c2[nH]c(C)c(C(C)=O)c2C)c2cccc3ccccc23)c1C` [3h], the minimum inhibitory concentration (MIC) in [1] is more than 128 µg/mL; in test [2], 1 µg/mL (≈ 2.42 µM); in test [3], 8 µg/mL (≈ 19.4 µM); in test [4], 1 µg/mL (≈ 2.42 µM); in test [5] it was 1 µg/mL (≈ 2.42 µM); in test [6], 1 µg/mL (≈ 2.42 µM). Besides, the MIC was 1 µg/mL (≈ 2.42 µM) in test [7], more than 128 µg/mL in [8], 1 µg/mL (≈ 2.42 µM) in test [9] and 2 µg/mL (≈ 4.85 µM) in [19].
Take `CC(=O)c1c(C)[nH]c(C(c2[nH]c(C)c(C(C)=O)c2C)c2csc3ccccc23)c1C` [3i]: the MIC in [1] was more than 128 µg/mL; in [2] it was 0.5 µg/mL (≈ 1.19 µM); in [3] it was 1 µg/mL (≈ 2.39 µM); in test [4], 0.5 µg/mL (≈ 1.19 µM); in [5] it was 0.5 µg/mL (≈ 1.19 µM); in test [6] it was 0.5 µg/mL (≈ 1.19 µM). In addition, the MIC in test [7] was 0.5 µg/mL (≈ 1.19 µM); in [8], more than 128 µg/mL; in [9], 1 µg/mL (≈ 2.39 µM); in test [10], 8 µg/mL (≈ 19.1 µM); in test [11], 4 µg/mL (≈ 9.56 µM); in test [12], 1 µg/mL (≈ 2.39 µM). Moreover, the MIC in test [13] was more than 16 µg/mL; in test [14], 2 µg/mL (≈ 4.78 µM); in [15], 1 µg/mL (≈ 2.39 µM); in test [16], more than 32 µg/mL; in test [17], 16 µg/mL (≈ 38.2 µM); in test [18] it was 4 µg/mL (≈ 9.56 µM). In test [19], the lowest concentration to inhibit growth (MIC) was 1 µg/mL (≈ 2.39 µM).
With `COC(=O)c1cccc(C(c2[nH]c(C)c(C(C)=O)c2C)c2[nH]c(C)c(C(C)=O)c2C)c1` [3j, Methyl-3-[bis(4-acetyl-3,5-dimethyl-1H-pyrrol-2-yl)methyl]benzoate], the MIC in [19] worked out at 8 µg/mL (≈ 19 µM).
